These results are taken from ChEMBL document CHEMBL5518175, “Design, synthesis, and biological evaluation of HDAC6 inhibitors targeting L1 loop and serine 531 residue” (Eur J Med Chem, 2024).

The target in experiment [1] is T1, Protein deacetylase HDAC6 (Homo sapiens, UniProt Q9UBN7).
T1 sequence (Q9UBN7 whole entry): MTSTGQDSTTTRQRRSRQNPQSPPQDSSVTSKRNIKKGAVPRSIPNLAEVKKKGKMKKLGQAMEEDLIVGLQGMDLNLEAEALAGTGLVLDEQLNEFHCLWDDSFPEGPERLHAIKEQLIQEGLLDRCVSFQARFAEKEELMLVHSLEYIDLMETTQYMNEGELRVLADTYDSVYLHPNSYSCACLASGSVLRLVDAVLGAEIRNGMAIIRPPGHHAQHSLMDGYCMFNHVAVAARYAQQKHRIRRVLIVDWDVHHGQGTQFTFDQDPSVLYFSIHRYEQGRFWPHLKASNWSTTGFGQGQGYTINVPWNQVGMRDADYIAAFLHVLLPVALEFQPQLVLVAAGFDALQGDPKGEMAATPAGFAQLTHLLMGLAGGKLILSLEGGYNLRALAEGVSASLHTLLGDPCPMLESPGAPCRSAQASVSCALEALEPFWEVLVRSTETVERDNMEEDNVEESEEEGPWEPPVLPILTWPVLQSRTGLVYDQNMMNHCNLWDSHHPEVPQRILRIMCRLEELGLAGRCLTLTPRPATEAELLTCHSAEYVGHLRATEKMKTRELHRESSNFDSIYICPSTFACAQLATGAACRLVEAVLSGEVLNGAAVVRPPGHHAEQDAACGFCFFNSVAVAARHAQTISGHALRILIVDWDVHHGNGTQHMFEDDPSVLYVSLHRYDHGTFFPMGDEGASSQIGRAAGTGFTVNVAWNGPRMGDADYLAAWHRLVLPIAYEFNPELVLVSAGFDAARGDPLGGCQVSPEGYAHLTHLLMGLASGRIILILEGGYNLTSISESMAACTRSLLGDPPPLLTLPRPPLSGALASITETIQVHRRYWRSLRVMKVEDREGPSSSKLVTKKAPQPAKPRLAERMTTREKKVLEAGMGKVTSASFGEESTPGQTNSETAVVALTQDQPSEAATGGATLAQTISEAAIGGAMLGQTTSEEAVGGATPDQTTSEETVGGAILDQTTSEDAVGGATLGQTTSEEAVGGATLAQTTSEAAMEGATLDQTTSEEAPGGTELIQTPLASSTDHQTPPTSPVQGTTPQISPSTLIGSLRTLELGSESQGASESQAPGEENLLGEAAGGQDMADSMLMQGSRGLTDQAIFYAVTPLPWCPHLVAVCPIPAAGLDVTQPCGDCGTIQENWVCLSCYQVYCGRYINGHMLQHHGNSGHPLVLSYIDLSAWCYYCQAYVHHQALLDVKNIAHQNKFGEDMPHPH
Description: Inhibition of HDAC6 (unknown origin) incubated for 30 mins by fluorescence plate reader assay

Experiment [2] concerns the target Histone deacetylase 1 (Homo sapiens, UniProt Q13547).
Description: Inhibition of HDAC1 (unknown origin) incubated for 30 mins by fluorescence plate reader assay
The target of experiment [3] is Histone deacetylase 9 (Homo sapiens, UniProt Q9UKV0). Description: Inhibition of HDAC9 (unknown origin) incubated for 30 mins by fluorescence plate reader assay.
Experiment [4] deals with T2, Histone deacetylase 7 (Homo sapiens, UniProt Q8WUI4).
T2 sequence (Q8WUI4 whole entry): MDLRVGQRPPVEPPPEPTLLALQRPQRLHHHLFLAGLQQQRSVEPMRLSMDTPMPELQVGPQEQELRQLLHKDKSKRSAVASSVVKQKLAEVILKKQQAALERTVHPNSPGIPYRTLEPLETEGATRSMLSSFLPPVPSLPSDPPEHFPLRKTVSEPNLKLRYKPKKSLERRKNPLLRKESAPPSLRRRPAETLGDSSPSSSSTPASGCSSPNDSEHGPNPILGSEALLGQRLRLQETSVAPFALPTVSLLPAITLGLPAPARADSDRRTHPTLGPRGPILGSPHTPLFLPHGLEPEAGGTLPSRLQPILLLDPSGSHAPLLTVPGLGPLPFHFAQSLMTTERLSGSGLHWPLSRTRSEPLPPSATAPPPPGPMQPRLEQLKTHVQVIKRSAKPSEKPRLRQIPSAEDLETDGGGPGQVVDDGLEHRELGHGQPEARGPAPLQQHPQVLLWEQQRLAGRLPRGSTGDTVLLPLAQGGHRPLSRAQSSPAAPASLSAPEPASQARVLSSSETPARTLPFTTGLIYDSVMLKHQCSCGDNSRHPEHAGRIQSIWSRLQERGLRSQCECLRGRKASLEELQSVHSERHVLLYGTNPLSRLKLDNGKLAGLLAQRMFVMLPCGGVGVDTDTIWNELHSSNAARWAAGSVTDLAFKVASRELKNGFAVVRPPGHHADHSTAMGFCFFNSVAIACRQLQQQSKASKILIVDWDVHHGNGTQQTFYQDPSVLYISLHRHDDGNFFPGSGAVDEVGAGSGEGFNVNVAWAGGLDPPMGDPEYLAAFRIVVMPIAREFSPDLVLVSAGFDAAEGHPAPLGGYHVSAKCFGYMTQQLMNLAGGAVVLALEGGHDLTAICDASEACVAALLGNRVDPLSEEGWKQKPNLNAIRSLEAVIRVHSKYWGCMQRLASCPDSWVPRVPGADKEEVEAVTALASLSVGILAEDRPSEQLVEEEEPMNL
Description: Inhibition of HDAC7 (unknown origin) incubated for 30 mins by fluorescence plate reader assay.

The target in experiment [5] is Histone deacetylase 4 (Homo sapiens, UniProt P56524). The experiment can be described thus: Inhibition of HDAC4 (unknown origin) incubated for 30 mins by fluorescence plate reader assay.
The target in experiment [6] is T3, Histone deacetylase 8 (Homo sapiens, UniProt Q9BY41).
T3 sequence (Q9BY41 whole entry): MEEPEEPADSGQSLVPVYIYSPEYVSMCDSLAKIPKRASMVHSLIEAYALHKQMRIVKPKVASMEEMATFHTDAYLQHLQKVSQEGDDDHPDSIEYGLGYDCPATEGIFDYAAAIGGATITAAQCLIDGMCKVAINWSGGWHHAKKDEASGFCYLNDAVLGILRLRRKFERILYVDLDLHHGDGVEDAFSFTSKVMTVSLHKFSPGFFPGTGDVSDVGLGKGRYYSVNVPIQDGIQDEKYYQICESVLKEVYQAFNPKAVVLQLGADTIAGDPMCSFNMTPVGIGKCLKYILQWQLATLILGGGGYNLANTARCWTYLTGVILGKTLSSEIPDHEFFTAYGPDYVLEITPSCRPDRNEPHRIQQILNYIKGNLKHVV
The experiment can be described thus: Inhibition of HDAC8 (unknown origin) incubated for 30 mins by fluorescence plate reader assay.

Experiment [7] addresses T4, Histone deacetylase 11 (Homo sapiens, UniProt Q96DB2).
T4 sequence (Q96DB2 whole entry): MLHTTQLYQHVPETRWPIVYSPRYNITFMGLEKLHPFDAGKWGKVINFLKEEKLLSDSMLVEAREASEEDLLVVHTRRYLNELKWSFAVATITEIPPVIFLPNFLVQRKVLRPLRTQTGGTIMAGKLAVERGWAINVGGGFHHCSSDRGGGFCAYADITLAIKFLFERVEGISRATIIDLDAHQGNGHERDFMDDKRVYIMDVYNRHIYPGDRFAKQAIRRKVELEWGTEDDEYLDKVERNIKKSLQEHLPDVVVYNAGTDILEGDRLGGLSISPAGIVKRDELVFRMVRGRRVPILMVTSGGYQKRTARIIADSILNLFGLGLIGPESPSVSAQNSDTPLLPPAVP
The experiment can be described thus: Inhibition of HDAC11 (unknown origin) incubated for 30 mins by fluorescence plate reader assay.

Experiment [8] addresses Histone deacetylase 2 (Homo sapiens, UniProt Q92769).
Description: Inhibition of HDAC2 (unknown origin) incubated for 30 mins by fluorescence plate reader assay
Experiment [9] deals with Histone deacetylase 5 (Homo sapiens, UniProt Q9UQL6). The experiment can be described thus: Inhibition of HDAC5 (unknown origin) incubated for 30 mins by fluorescence plate reader assay.
For experiment [10], the target named is Histone deacetylase 3 (Homo sapiens, UniProt O15379). Description: Inhibition of HDAC3 (unknown origin) incubated for 30 mins by fluorescence plate reader assay.
Experiment [11] addresses T5, Polyamine deacetylase HDAC10 (Homo sapiens, UniProt Q969S8).
T5 sequence (Q969S8 whole entry): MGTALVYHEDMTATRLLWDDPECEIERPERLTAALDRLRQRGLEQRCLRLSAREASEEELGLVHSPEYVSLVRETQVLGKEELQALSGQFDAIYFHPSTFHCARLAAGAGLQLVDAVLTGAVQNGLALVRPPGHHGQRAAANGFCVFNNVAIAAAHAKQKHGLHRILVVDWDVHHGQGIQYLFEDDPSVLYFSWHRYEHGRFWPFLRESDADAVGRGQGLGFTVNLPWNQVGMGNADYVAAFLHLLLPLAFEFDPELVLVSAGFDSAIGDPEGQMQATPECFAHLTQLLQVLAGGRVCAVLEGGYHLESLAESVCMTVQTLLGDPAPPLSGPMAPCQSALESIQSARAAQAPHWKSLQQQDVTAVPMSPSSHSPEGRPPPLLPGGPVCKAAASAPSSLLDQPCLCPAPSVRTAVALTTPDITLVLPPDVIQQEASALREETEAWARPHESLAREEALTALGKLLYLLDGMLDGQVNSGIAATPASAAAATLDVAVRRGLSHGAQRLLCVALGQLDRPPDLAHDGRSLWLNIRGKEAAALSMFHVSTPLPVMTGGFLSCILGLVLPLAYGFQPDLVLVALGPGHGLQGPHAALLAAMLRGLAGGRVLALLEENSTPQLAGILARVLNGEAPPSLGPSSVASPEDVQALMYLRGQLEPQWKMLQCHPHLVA
The experiment can be described thus: Inhibition of HDAC10 (unknown origin) incubated for 30 mins by fluorescence plate reader assay.

Molecules are shown by their SMILES.

Chain of Histone deacetylase 1 (Q13547 whole entry): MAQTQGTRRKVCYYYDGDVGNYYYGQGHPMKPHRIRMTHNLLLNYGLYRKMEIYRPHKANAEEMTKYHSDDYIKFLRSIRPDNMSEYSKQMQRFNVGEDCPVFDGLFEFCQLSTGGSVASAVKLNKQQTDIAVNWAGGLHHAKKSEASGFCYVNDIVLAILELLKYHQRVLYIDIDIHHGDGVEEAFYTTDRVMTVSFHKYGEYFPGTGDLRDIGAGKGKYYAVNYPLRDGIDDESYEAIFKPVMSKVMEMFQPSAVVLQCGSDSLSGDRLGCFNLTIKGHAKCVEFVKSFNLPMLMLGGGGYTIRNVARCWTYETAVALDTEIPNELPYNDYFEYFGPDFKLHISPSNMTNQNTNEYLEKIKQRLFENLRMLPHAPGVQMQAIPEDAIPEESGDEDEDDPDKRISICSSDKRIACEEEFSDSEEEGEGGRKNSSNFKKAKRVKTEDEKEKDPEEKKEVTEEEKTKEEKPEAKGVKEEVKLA
Chain of Histone deacetylase 2 (Q92769 whole entry): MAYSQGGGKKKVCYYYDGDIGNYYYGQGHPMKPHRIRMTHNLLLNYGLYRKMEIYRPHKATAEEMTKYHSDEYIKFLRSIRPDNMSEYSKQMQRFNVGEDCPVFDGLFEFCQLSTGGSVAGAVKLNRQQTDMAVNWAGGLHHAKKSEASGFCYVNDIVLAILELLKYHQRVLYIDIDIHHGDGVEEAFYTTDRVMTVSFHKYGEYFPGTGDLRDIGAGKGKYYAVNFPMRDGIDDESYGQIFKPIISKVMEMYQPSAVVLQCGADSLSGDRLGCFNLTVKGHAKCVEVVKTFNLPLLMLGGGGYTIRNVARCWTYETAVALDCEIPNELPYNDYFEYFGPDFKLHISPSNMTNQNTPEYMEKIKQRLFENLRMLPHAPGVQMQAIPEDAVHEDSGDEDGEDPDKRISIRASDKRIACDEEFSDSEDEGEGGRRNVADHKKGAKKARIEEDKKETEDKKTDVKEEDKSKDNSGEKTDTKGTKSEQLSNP
Chain of Histone deacetylase 5 (Q9UQL6 whole entry): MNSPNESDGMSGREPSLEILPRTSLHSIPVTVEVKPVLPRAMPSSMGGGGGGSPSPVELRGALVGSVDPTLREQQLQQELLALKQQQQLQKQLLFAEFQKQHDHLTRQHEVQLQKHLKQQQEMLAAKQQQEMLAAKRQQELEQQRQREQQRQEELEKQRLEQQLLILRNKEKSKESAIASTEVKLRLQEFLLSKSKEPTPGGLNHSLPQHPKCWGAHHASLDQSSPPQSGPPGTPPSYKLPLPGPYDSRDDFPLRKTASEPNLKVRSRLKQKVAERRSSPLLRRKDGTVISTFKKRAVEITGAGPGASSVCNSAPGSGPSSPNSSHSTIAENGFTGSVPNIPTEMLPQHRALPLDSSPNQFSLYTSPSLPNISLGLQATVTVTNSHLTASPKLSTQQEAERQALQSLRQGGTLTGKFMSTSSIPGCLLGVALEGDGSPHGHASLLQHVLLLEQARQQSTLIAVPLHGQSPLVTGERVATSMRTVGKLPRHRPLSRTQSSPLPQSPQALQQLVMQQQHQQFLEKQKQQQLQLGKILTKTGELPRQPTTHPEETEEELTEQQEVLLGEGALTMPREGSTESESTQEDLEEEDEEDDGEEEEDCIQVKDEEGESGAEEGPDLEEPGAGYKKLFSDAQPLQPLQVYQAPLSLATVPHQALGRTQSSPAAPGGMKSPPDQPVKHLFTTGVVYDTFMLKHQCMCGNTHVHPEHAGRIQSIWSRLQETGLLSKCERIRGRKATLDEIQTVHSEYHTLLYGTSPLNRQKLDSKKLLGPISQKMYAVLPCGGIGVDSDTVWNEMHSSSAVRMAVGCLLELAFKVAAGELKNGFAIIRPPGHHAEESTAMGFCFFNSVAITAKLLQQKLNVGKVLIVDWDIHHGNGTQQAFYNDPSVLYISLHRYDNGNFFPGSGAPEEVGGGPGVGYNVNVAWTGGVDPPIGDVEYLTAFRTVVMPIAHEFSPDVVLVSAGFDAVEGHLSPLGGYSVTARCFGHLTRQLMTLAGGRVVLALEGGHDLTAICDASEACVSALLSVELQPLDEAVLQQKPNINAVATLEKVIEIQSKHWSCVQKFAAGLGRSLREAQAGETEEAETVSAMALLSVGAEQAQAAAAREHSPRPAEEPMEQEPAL
Chain of Histone deacetylase 3 (O15379 whole entry): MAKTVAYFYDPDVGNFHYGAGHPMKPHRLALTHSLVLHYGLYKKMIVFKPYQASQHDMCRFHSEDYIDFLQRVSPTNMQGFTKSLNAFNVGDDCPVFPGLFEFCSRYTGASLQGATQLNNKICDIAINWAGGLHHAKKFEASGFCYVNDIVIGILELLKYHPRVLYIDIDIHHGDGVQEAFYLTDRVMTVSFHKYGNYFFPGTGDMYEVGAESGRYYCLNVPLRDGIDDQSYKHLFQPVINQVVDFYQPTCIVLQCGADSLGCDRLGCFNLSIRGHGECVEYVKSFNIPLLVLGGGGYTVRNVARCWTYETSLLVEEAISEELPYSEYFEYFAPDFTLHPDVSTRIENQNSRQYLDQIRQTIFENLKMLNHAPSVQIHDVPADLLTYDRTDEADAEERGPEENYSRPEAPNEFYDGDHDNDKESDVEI
Chain of Histone deacetylase 4 (P56524 whole entry): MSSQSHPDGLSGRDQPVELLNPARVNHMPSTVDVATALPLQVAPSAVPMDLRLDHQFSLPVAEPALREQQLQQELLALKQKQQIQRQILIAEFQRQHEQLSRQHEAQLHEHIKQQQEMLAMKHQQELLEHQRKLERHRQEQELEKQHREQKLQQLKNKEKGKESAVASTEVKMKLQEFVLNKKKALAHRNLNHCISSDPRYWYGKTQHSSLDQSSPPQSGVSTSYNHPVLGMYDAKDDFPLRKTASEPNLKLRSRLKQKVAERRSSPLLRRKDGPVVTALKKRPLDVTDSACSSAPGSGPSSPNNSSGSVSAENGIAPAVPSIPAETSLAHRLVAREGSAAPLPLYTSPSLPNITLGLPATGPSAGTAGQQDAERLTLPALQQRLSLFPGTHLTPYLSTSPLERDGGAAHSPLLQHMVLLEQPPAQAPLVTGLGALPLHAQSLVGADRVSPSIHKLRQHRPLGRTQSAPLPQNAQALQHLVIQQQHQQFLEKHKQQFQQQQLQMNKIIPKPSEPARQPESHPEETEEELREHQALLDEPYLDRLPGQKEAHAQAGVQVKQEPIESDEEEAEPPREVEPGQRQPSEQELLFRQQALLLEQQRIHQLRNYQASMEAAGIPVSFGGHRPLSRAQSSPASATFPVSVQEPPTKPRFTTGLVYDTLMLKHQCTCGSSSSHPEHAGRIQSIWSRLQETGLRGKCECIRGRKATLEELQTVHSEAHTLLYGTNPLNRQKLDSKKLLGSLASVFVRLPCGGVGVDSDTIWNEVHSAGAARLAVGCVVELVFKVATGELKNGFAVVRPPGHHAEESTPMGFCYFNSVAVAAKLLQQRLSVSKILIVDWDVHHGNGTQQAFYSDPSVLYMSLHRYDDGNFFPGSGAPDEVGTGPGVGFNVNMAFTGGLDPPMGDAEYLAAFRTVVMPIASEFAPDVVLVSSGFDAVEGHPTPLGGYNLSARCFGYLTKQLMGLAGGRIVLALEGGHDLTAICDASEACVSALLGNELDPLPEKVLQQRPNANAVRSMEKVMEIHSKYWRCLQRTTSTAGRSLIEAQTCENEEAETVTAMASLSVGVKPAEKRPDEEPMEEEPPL
Chain of Histone deacetylase 9 (Q9UKV0 whole entry): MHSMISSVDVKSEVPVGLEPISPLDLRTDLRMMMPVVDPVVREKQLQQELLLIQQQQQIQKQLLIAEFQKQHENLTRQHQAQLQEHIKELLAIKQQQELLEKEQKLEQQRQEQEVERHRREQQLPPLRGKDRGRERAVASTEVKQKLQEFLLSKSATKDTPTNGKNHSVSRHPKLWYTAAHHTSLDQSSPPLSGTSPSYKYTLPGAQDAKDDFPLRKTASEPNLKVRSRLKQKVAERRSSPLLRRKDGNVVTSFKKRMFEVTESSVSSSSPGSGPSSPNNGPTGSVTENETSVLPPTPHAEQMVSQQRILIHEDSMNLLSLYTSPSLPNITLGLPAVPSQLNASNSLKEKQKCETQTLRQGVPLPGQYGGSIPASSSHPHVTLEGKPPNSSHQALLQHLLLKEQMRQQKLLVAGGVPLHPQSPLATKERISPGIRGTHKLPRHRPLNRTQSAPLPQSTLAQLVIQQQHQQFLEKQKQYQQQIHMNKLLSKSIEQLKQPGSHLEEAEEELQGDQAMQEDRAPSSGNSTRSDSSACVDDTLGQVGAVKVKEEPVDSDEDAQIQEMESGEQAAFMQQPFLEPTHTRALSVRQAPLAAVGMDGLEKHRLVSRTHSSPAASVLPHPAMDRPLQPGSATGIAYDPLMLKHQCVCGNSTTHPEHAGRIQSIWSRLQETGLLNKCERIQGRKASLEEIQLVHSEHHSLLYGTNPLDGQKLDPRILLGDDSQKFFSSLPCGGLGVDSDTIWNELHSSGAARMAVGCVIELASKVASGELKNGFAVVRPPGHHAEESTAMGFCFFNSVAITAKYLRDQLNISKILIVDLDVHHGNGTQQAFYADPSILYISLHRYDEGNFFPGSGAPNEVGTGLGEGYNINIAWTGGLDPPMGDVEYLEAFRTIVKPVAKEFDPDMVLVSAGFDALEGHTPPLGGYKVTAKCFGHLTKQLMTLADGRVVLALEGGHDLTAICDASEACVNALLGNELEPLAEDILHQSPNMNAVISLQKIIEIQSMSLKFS

On to `O=C(NO)c1ccc(CNC(=O)c2ccccc2)cc1`, for which the IC50 (usually the concentration that inhibits the measured activity by half) turned out to be 87 nM in experiment [1] and 941 nM in experiment [2].

On to `O=C(NO)c1ccc(CN(Cc2ccccc2)C(=O)c2ccccc2)cc1`, for which the IC50 was greater than 10000 nM in experiment [3]; 4950 nM in experiment [4]; greater than 10000 nM in experiment [5]; 4480 nM in experiment [6]; greater than 10000 nM in experiment [7]; greater than 10000 nM in [8]. Besides, the IC50 in experiment [9] was greater than 10000 nM; in experiment [10] it was 1930 nM; in experiment [2], 850 nM; in [11], 1410 nM.
